In PMC11904948, “Peptide‐Drug Conjugate for Therapeutic Reprogramming of Tumor‐Associated Macrophages in Breast Cancer” (Advanced Science, 2025):

Tested on: YAP
Assay: YAP immunofluorescence in BMDM
Format: cell-based, mouse
Details: day 5 BMDM, 10 µM 4 h, washed, confocal microscopy 3 h later
Excerpt: We speculated that the observed in vivo effect of MACTIDE‐V could be mediated by the modulation of macrophage phenotype elicited by Verteporfin, a drug that inhibits the co‐transcription factor Yes Associated Protein (YAP), and prevents the anti‐inflammatory shift in macrophages.^[ [26] ^] We therefore analyzed the effect of MACTIDE‐V on YAP localization and phenotypic changes in mouse bone marrow‐derived macrophages (BMDM) in vitro. We first treated BMDM with MACTIDE‐V, MACTIDE, or CtrlPep‐V and evaluated changes in YAP localization 3 h later using confocal microscopy. […] These observations are consistent with the reported effect of Verteporfin sequestering YAP in the cytoplasm.^[ [27], [28] ^]
Figure 6 MACTIDE‐V promotes a YAP‐ mediated anti‐ tumoral switch in bone marrow‐derived macrophages. Day 5 BMDM were incubated for 4 h with 10 µM conjugates, washed, and followed‐up in media. A) YAP Immunofluorescence (shown in red) was analyzed 3 h after treatment and B) phagocytosis of fluorescent E. coli particles at 48 h follow‐up. C) Flow cytometry on BMDM 48 h after treatment. Left panel, GeoMean of MHC II, CD206, CD80, and PD‐L1 in Balb/c BMDM. Median ± interquartile range. […] D) Heatmap of the mRNA expression of genes involved in the functional activation of BMDM, YAP signaling, and adhesion, measured by real‐time PCR 48 h after treatment in BALB/c BMDM. n = 3 independent experiments. […]

Substance | YAP localization
Vert‐Ahx‐AKPCGS‐OH [CtrlPep‐V, reference compound] | uniformly spread throughout the cell
Vert‐Ahx‐G(CTKSIPPIC)SPGAK‐OH (disulfide) [MACTIDE‐V] | excluded YAP from the nucleus
